Source: a melting point compilation (Tetko et al.; mined from patent text by program, amines drawn as free bases though some values may be those of a salt)

In the case of `COC(=O)c1nc2ccccc2o1`, the melting point is reported as 101 to 102 °C. In the case of `CC(C)OC(=O)c1ccc2c(c1)C(=O)CC(c1ccccc1)=N2`, the melting point is reported as > 300 °C. `CN(C)c1ccc(-c2[nH]nc3c2C(=O)c2c(NC(=O)CN4CCC(O)CC4)cccc2-3)cc1` gave a melting point of 267 °C. Work on `COC(=O)c1cc(O)cc(Cl)c1O` yielded a melting point of 126 °C. Work on `Nc1ccc(-c2ccc3nnn(Cc4ccc5ncccc5c4)c3n2)cn1` yielded a melting point of 194 to 197 °C. For `Cc1cc(C)c2ccc(S(=O)(=O)O)nc2n1`, the melting point was > 280 °C. Work on `Nc1ccc(C=Cc2ccncn2)cc1` yielded a melting point of 227 to 230 °C. `CC(C)Cn1c(-c2c(F)cccc2F)cnc(-n2cccn2)c1=O` showed a melting point of 91 to 92 °C. Work on `CS(=O)(=O)N[C@@H](CCCCNC(=O)OCc1ccccc1)C(=O)O` yielded a melting point of 83.5 to 84 °C. With `O=C(O)c1cn(C2COC2)c2c(F)c(F)cc(F)c2c1=O` the melting point was > 300 °C. For `Fc1ccc(F)c(CC2CCN(C3CC=C(c4ccc5c(c4)OCO5)CC3)CC2)c1` (configuration not stated), the melting point was 87 to 88 °C. Work on `CC(C)(n1cncn1)C(O)(Cn1cncn1)c1ccc(Cl)cc1` (configuration not stated) yielded a melting point of 114 °C. For `NNC(=O)Nc1nc2ccccc2[nH]1`, the melting point was 320 to 322 °C. For `CCOC(=O)CSc1nc(Cl)cc(Nc2ccc(F)cc2)n1`, the melting point was 97 to 102 °C. With `CC1(C)CC(=O)C=C(OC(=O)c2cccc3nnsc23)C1` the melting point was 131 to 133 °C. `NCCN1CCC(c2n[nH]c3cc(F)ccc23)CC1` gave a melting point of 125 to 128 °C. With `COC(=O)C1=C(C)NC(C)=C(C(=O)OCCN2C(=O)c3ccccc3C2=O)C1c1cccc([N+](=O)[O-])c1` (configuration not stated) the melting point was 182 °C. Work on `CN(N)C(=O)c1ccc(O)c(O)c1` yielded a melting point of 202 to 205 °C. `CN(C)CCNC(=O)Cc1ccc(NC(=O)OCc2ccccc2)cc1` showed a melting point of 126 to 127 °C. Work on `N#CCNCNCC#N` yielded a melting point of 83 to 85 °C. Work on `CC(OS(C)(=O)=O)C(=O)O` (single isomer, unassigned; (-)) yielded a melting point of 65 to 72 °C. `CCc1nc2c(N)nc3cccnc3c2n1CCCCCC(N)=O` gave a melting point of 220 to 221 °C. For `COc1ccc(-n2nc(C(C)(C)C)cc2NC(=O)c2nccc3cc(Oc4cc(Cl)ncn4)ccc23)cc1`, the melting point was 156 °C. In the case of `COc1cc2ncc(C#N)c(Nc3ccc(F)c(Cl)c3)c2cc1NC(=O)CC(CN1CCC(O)C1)N1CCC(O)C1` (configuration not stated), the melting point is reported as 139 to 143 °C. `CCOC(=O)CCc1cc2cc(O)ccc2s1` gave a melting point of 111 to 113 °C. For `NCCNC(=O)CCCOc1ccc(C2=NNC(=O)CC2)cc1`, the melting point was 174 to 175 °C. `COc1cc(OCC(CO)CO)c(C=CC(=O)c2ccc(S(N)(=O)=O)cc2)cc1-c1cccs1` gave a melting point of 123 to 124 °C. For `CCNC(=O)c1ccc(N2CCN(Cc3cc4c(c(OC)c3)OC(C)C(=O)N4)CC2)c(Cl)c1` (configuration not stated), the melting point was 119 to 121 °C. With `O=c1[nH]c2c(Cl)cccc2c(=O)o1` the melting point was 225 to 230 °C. `CC(C)(C)c1cc(Cn2c(=S)sc3ccccc32)cc(C(C)(C)C)c1O` showed a melting point of 148 to 150 °C. In the case of `Nc1nc(N)c2cc(C=Cc3ccc(C(=O)O)cc3)cnc2n1`, the melting point is reported as > 300 °C. Compound `COS(=O)(=O)c1ccc(Cl)cc1NC(=O)/C=C/c1ccc2ccccc2c1` has a melting point of 178 to 180 °C. In the case of `Nc1ncc(C2OC(CO)C(O)C2O)c(=O)[nH]1` (configuration not stated), the melting point is reported as 216 to 217 °C. In the case of `CCCn1c(=O)c2[nH]c(/C=C/c3ccco3)nc2n(CCC)c1=O`, the melting point is reported as 258 to 259 °C. `Cc1cc(C)c2c(c1)C(NC(=O)c1conc1C)CCC2` (configuration not stated) gave a melting point of 57 to 58 °C. Work on `Cc1c2n(c(=O)c3c(O)cccc13)CCCS2=O` (configuration not stated) yielded a melting point of 169 to 170 °C. In the case of `CCOC(=O)c1cnc2cc(F)c(F)cc2c1Cl`, the melting point is reported as 111 °C. With `CC(C)CNC(=O)COc1ccc(C2=NNC(=O)NC2C)cc1Cl` (configuration not stated) the melting point was 205 to 206 °C. `COc1ccc(-c2cc(CO)c(=O)n(CC3CCCC3)n2)cc1F` showed a melting point of 130 to 133 °C. For `C=CCc1ccc(OCCC(C)C)c2c(=O)cc(C(=O)O)oc12`, the melting point was 79 to 80 °C. Compound `COC(=O)CCC(=O)OC(=C1C(=O)N(C(N)=O)c2cc(Cl)c(F)cc21)c1cccs1` has a melting point of 179 to 183 °C. `COC(=O)C1=Cc2cc(Br)ccc2SCC1` gave a melting point of 94 to 95 °C.
